Measured values published in patent US9241928B2, “Antimicrobial compounds” (The General Hospital Corporation, priority 2009, dated 2016).
Values after ≈ are worked out from the molar mass of the structure shown.

Key:
[1] = test system: E. faecalis MMH594; assay: MIC assay, E. faecalis in vitro; type: cell-based; settings: Enterococcus faecalis; E. faecalis MMH594 in 20% BHI, 80% M9, 37° C., 15 hours, scored by eye
Description: A culture of E. faecalis MMH594 was grown overnight in BHI broth to stationary phase at 37° C. with aeration. The culture was diluted to an approximate density of […] in worm infection media (20% BHI, 80% M9 buffer). 12.5 μl of the bacterial culture dilution was inoculated into 384-well plates containing 12.5 μl of 2-fold serial dilutions of a test compound. […] Plates were incubated at 37° C. for 15 hours and scored by eye for bacterial growth.

[2] = test system: F35E12.5::GFP; assay: Immune GFP reporter induction, transgene acIs101; type: in vivo, Caenorhabditis elegans; settings: compound-exposed versus DMSO-exposed animals, visual
Excerpt: (§1) Caenorhabditis elegans strains were maintained on Escherichia coli OP50 as described in Brenner, Genetics, 1974, 77:71-94. Wildtype N2 nematodes carrying integrated transgenes acIs219 (AU78), acIs101(AY101), agIs17(AU133), or agIs26 (AU185) (see (1) Shivers, et al., PLoS. Genet. 2010, 6: e1000892, (2) Bolz et al., J. Biol. Chem. 2010, 285:10832-40, (3) Estes et al., Proc. Natl. Acad. Sci., 2010, 107:2153-8, and (4) Irazoqui et al., Proc. Natl. Acad. Sci., 2008, 105:17469-74) were used to assay the immunomodulatory activity of candidate compounds. […] Fold change was calculated using the Pfaffl method (see Pfaffl et al., Nucleic Acids Res., 2001, 29:e45).
(§2) Without wishing to be bound by theory, it was hypothesized that a subset of these compounds cured nematode infection by directly activating the innate immune response of the animal. […] First, the inventors studied four C. elegans strains in which the promoter of the nematode immune response genes T24B8.5, F35E12.5, irg-1 and clec-60 were individually fused to GFP, generating transgenes acIs219 (AU78), acIs101(AY101), agIs17(AU133), or agIs26 (AU185), respectively, thereby allowing a visual readout of gene activity in each strain. […]

[3] = test system: T24B8.5::GFP; assay: Immune GFP reporter induction, transgene acIs219; type: in vivo, Caenorhabditis elegans; settings: compound-exposed versus DMSO-exposed animals, visual
Excerpt: as §1, with “compounds. For qRT-PCR experiments, RNA was extracted from synchronized young adult nematodes exposed to a candidate compound or DMSO (as a control) using TRI Reagent and reverse transcribed using the Retroscript kit (Ambion). This cDNA was then subjected to qRT-PCR analysis using SYBR green detection on a CFX1000 machine (Bio-Rad, http://www.bio-rad.com). Primers for qRT-PCR were obtained from published sequences (see Irazoqui et al., Proc. Natl. Acad. Sci., 2008, 105:17469-74 and Troemel et al., PLoS Genet. 2006, 2:e183).” for “compounds.”
Without wishing to be bound by theory, it was hypothesized that a subset of these compounds cured nematode infection by directly activating the innate immune response of the animal. To test this hypothesis, a multi-faceted approach was used. First, the inventors studied four C. elegans strains in which the promoter of the nematode immune response genes T24B8.5, F35E12.5, irg-1 and clec-60 were individually fused to GFP, generating transgenes acIs219 (AU78), acIs101(AY101), agIs17(AU133), or agIs26 (AU185), respectively, thereby allowing a visual readout of gene activity in each strain. Using these reporter strains, the ability of 33 compounds previously shown to have anti-Enterococcal killing activity in the C. elegans infection assay (24 of which have been described above) were tested for their ability to modulate the nematode immune response.

[4] = test system: clec-60::GFP; assay: Immune GFP reporter induction, transgene agIs26; type: in vivo, Caenorhabditis elegans; settings: compound-exposed versus DMSO-exposed animals, visual
Excerpt: as §1, §2

[5] = test system: C17H12.8; assay: qRT-PCR of immune response gene expression; type: in vivo, Caenorhabditis elegans; settings: 20 μg/mL versus DMSO
Excerpt: as §1, with “compounds. For qRT-PCR experiments, RNA was extracted from synchronized young adult nematodes exposed to a candidate compound or DMSO (as a control) using TRI Reagent and reverse transcribed using the Retroscript kit (Ambion). This cDNA was then subjected to qRT-PCR analysis using SYBR green detection on a CFX1000 machine (Bio-Rad, http://www.bio-rad.com). Primers for qRT-PCR were obtained from published sequences (see Irazoqui et al., Proc. Natl. Acad. Sci., 2008, 105:17469-74 and Troemel et al., PLoS Genet. 2006, 2:e183).” for “compounds.”
(§3) By using the assay described above, the inventors identified five compounds (i.e., Compounds 11, 18, 20, 25, and 26) that robustly and reproducibly activated the immune GFP reporters (see FIG. 5 and Table 3) or activated selected immune response genes as determined by quantitative RT-PCR analysis (see Table 4). For the latter experiments, RNA was isolated from wild-type C. elegans N2 or pmk-1 mutant animals exposed to the candidate immunomodulatory compounds at 20 μg/mL and from animals exposed to DMSO. The inventors tested several immune response genes in compound-exposed animals that are known to be regulated by PMK-1, the p38 Mitogen Acitvated Protein kinase homolog, an evolutionary-conserved, central regulator of nematode immunity. The inventors also used qRT-PCR to measure the activation of several immune response genes that are known to be activated independently of PMK-1. […] Thus, without wishing to be bound by theory, it is believed that a subset of the compounds identified in the screen for novel anti-infective compounds directly stimulate the immune response of the nematode and that these compounds act both by directly stimulating the PMK-1 pathway and by unidentified parallel immune response pathways.

[6] = test system: C49G7.5; assay: qRT-PCR of immune response gene expression; type: in vivo, Caenorhabditis elegans; settings: 20 μg/mL versus DMSO
Excerpt: as §1, with “compounds. For qRT-PCR experiments, RNA was extracted from synchronized young adult nematodes exposed to a candidate compound or DMSO (as a control) using TRI Reagent and reverse transcribed using the Retroscript kit (Ambion). This cDNA was then subjected to qRT-PCR analysis using SYBR green detection on a CFX1000 machine (Bio-Rad, http://www.bio-rad.com). Primers for qRT-PCR were obtained from published sequences (see Irazoqui et al., Proc. Natl. Acad. Sci., 2008, 105:17469-74 and Troemel et al., PLoS Genet. 2006, 2:e183).” for “compounds.”
as §3

[7] = test system: F35E12.5; assay: qRT-PCR of immune response gene expression; type: in vivo, Caenorhabditis elegans; settings: 20 μg/mL versus DMSO
Excerpt: as §1, with “compounds. For qRT-PCR experiments, RNA was extracted from synchronized young adult nematodes exposed to a candidate compound or DMSO (as a control) using TRI Reagent and reverse transcribed using the Retroscript kit (Ambion). This cDNA was then subjected to qRT-PCR analysis using SYBR green detection on a CFX1000 machine (Bio-Rad, http://www.bio-rad.com). Primers for qRT-PCR were obtained from published sequences (see Irazoqui et al., Proc. Natl. Acad. Sci., 2008, 105:17469-74 and Troemel et al., PLoS Genet. 2006, 2:e183).” for “compounds.”
as §3

[8] = test system: F53E10.4; assay: qRT-PCR of immune response gene expression; type: in vivo, Caenorhabditis elegans; settings: 20 μg/mL versus DMSO
Excerpt: as §1, with “compounds. For qRT-PCR experiments, RNA was extracted from synchronized young adult nematodes exposed to a candidate compound or DMSO (as a control) using TRI Reagent and reverse transcribed using the Retroscript kit (Ambion). This cDNA was then subjected to qRT-PCR analysis using SYBR green detection on a CFX1000 machine (Bio-Rad, http://www.bio-rad.com). Primers for qRT-PCR were obtained from published sequences (see Irazoqui et al., Proc. Natl. Acad. Sci., 2008, 105:17469-74 and Troemel et al., PLoS Genet. 2006, 2:e183).” for “compounds.”
as §3

[9] = test system: F56D6.2; assay: qRT-PCR of immune response gene expression; type: in vivo, Caenorhabditis elegans; settings: 20 μg/mL versus DMSO
Excerpt: as §1, with “compounds. For qRT-PCR experiments, RNA was extracted from synchronized young adult nematodes exposed to a candidate compound or DMSO (as a control) using TRI Reagent and reverse transcribed using the Retroscript kit (Ambion). This cDNA was then subjected to qRT-PCR analysis using SYBR green detection on a CFX1000 machine (Bio-Rad, http://www.bio-rad.com). Primers for qRT-PCR were obtained from published sequences (see Irazoqui et al., Proc. Natl. Acad. Sci., 2008, 105:17469-74 and Troemel et al., PLoS Genet. 2006, 2:e183).” for “compounds.”
as §3

[10] = test system: T24B8.5; assay: qRT-PCR of immune response gene expression; type: in vivo, Caenorhabditis elegans; settings: 20 μg/mL versus DMSO
Excerpt: as §1, with “compounds. For qRT-PCR experiments, RNA was extracted from synchronized young adult nematodes exposed to a candidate compound or DMSO (as a control) using TRI Reagent and reverse transcribed using the Retroscript kit (Ambion). This cDNA was then subjected to qRT-PCR analysis using SYBR green detection on a CFX1000 machine (Bio-Rad, http://www.bio-rad.com). Primers for qRT-PCR were obtained from published sequences (see Irazoqui et al., Proc. Natl. Acad. Sci., 2008, 105:17469-74 and Troemel et al., PLoS Genet. 2006, 2:e183).” for “compounds.”
as §3

[11] = test system: irg-1; assay: qRT-PCR of immune response gene expression; type: in vivo, Caenorhabditis elegans; settings: 20 μg/mL versus DMSO
Excerpt: as §1, with “compounds. For qRT-PCR experiments, RNA was extracted from synchronized young adult nematodes exposed to a candidate compound or DMSO (as a control) using TRI Reagent and reverse transcribed using the Retroscript kit (Ambion). This cDNA was then subjected to qRT-PCR analysis using SYBR green detection on a CFX1000 machine (Bio-Rad, http://www.bio-rad.com). Primers for qRT-PCR were obtained from published sequences (see Irazoqui et al., Proc. Natl. Acad. Sci., 2008, 105:17469-74 and Troemel et al., PLoS Genet. 2006, 2:e183).” for “compounds.”
as §3

[12] = test system: immune response genes; assay: qRT-PCR of immune response genes, PMK-1 dependence (overall); type: in vivo, Caenorhabditis elegans; settings: 20 μg/mL, N2 or pmk-1 mutant animals
Excerpt: as §1, with “compounds. For qRT-PCR experiments, RNA was extracted from synchronized young adult nematodes exposed to a candidate compound or DMSO (as a control) using TRI Reagent and reverse transcribed using the Retroscript kit (Ambion). This cDNA was then subjected to qRT-PCR analysis using SYBR green detection on a CFX1000 machine (Bio-Rad, http://www.bio-rad.com). Primers for qRT-PCR were obtained from published sequences (see Irazoqui et al., Proc. Natl. Acad. Sci., 2008, 105:17469-74 and Troemel et al., PLoS Genet. 2006, 2:e183).” for “compounds.”
By using the assay described above, the inventors identified five compounds (i.e., Compounds 11, 18, 20, 25, and 26) that robustly and reproducibly activated the immune GFP reporters (see FIG. 5 and Table 3) or activated selected immune response genes as determined by quantitative RT-PCR analysis (see Table 4). For the latter experiments, RNA was isolated from wild-type C. elegans N2 or pmk-1 mutant animals exposed to the candidate immunomodulatory compounds at 20 μg/mL and from animals exposed to DMSO. The inventors tested several immune response genes in compound-exposed animals that are known to be regulated by PMK-1, the p38 Mitogen Acitvated Protein kinase homolog, an evolutionary-conserved, central regulator of nematode immunity. The inventors also used qRT-PCR to measure the activation of several immune response genes that are known to be activated independently of PMK-1. […]

SMILES	MIC [1] [µg/mL]	immune reporter induction F35E12.5::GFP [2]	immune reporter induction T24B8.5::GFP [3]	immune reporter induction clec-60::GFP [4]	C17H12.8 expression, average fold-change ([5]; genotype N2) [fold-change]	C17H12.8 expression, average fold-change ([5]; genotype pmk-1(km25)) [fold-change]	C49G7.5 expression, average fold-change ([6]; genotype N2) [fold-change]	C49G7.5 expression, average fold-change ([6]; genotype pmk-1(km25)) [fold-change]	F35E12.5 expression, average fold-change ([7]; genotype N2) [fold-change]	F35E12.5 expression, average fold-change ([7]; genotype pmk-1(km25)) [fold-change]	F53E10.4 expression, average fold-change ([8]; genotype N2) [fold-change]	F53E10.4 expression, average fold-change ([8]; genotype pmk-1(km25)) [fold-change]	F56D6.2 expression, average fold-change ([9]; genotype N2) [fold-change]	F56D6.2 expression, average fold-change ([9]; genotype pmk-1(km25)) [fold-change]	T24B8.5 expression, average fold-change ([10]; genotype N2) [fold-change]	T24B8.5 expression, average fold-change ([10]; genotype pmk-1(km25)) [fold-change]	irg-1 expression, average fold-change ([11]; genotype N2) [fold-change]	irg-1 expression, average fold-change ([11]; genotype pmk-1(km25)) [fold-change]	PMK-1 dependence of immune response gene activation [12]
NNc1ccc2c(Cl)cc(Cl)c(O)c2n1 [Compound 11]	6.25 (≈ 25.6 µM)	+	+	+	18.0	1.1	0.9	2.5	20.23	6.7	1.0	1.7	15.1	1.4	57.0	3.2	1.7	4.7	preferentially activated PMK-1-dependent immune response genes
Cc1ccc(Nc2nc(N)c3ccccc3n2)cc1Cl [Compound 26]		+	+		1.1	0.4	1.8	6.3	156.1	149.0	0.3	0.8	13.1	0.6	1.6	1.8	1.1	4.0	activated at least one immune response gene in the nematode in a manner independent of PMK-1
